Measured values as given in article PMC3220680, “Microsecond Molecular Dynamics Simulations of Intrinsically Disordered Proteins Involved in the Oxidative Stress Response” (PLoS ONE, 2011).
Read-outs that look alike come from different tables or passages of the source. Values belong to the molecule of their own block, whether it stands above or below them.

How the values were obtained:
[1] = molecular target: Keap1 Kelch (Homo sapiens) (UniProt Q14145); experiment: ITC; conditions: cited from earlier work
[2] = molecular target: Kelch domain of Keap1; conditions: ITC; ref [79]; cited from earlier work
[3] = test system: Keap1; conditions: cited from earlier work; for competition with full-length Nrf2 for binding to Keap1: compared with 10-mer peptide (LDEETGEFLP), ref [79]
[4] = test system: Nrf2-targeted cytoprotective genes; conditions: ref [49], [50]; cited from earlier work
Text: The Keap1-binding motif of ProTα (-NEENGE-) shares a similar sequence with that of the Neh2 ...

[5] = molecular target: Keap1 Kelch (Mus musculus) (UniProt Q9Z2X8); experiment: ITC; conditions: cited from earlier work
[6] = test system: Kelch domain of mouse Keap1 (residues 324–612); experiment: ITC binding of mouse peptides to Kelch domain of Keap1
Description: The Kelch domain (residues 324–612) of mouse Keap1 was expressed in Escherichia coli BL21 (DE3) grown in minimal M9 medium. The N-terminally His-tagged protein was purified by affinity chromatography using Ni Sepharose™ 6 Fast Flow beads (Amersham Biosciences). The tag was then cleaved by incubation with His-tagged tobacco etch virus (TEV) protease overnight at 25°C. The protein product was purified by passing the mixture through Ni Sepharose™ 6 Fast Flow beads (Amersham Biosciences).
ITC experiments were performed on a VP-ITC system (MicroCal) at 25°C. The Kelch domain was dialyzed against 50 mM phosphate buffer at pH 7, containing 100 mM NaCl and 1 mM DTT. Mouse ProTα (Ala-39 to Asp-54) and Neh2 (Leu-76 to Leu-84) peptides (GenScript) were also dissolved in the same buffer. All samples were filtered and degassed before the ITC experiments. […] Heat changes after saturation were used to account for the heat of dilution. The binding stoichiometries (n), enthalpy changes (ΔH), binding constants (Ka), Gibbs free energy changes (ΔG) and entropy changes (ΔS) were calculated using the titration data.
Supplementary file pone.0027371.s006.tif: Figure S4 Isothermal titration calorimetry (ITC) measurements. […] (Upper) The raw data of two ITC experiments each performed at 25°C. (Lower) The integrated heat changes, corrected for the heat of dilution, and the fitted curve assuming single-site binding. (TIF) Click here for additional data file.

[7] = molecular target: Keap1 Kelch (Mus musculus) (UniProt Q9Z2X8); conditions: cited from earlier work
[8] = molecular target: T1, Kelch domain (residues 324–612) of mouse Keap1 (mouse, UniProt Q9Z2X8 324-612); experiment: ITC; VP-ITC (MicroCal), 25°C; 5 µL aliquots of 0.5 mM peptide titrated into 1.4 mL of 0.05 mM Kelch in the cell; 50 mM phosphate pH 7, 100 mM NaCl, 1 mM DTT; single-site fit; conditions: both partners purified
T1 construct: Kelch domain of Kelch-like ECH-associated protein 1 (Keap1), mouse, residues 324-612; His tag cleaved with TEV protease; also called Kelch-like ECH-associated protein 1; source: Escherichia coli BL21 (DE3) in minimal M9 medium, purified (Ni Sepharose, TEV cleavage, second Ni Sepharose pass); not shown: His tag, N-terminal, cleaved

[9] = ITC, T = 298 K, pH 7, 50 mM phosphate, 100 mM NaCl, 1 mM DTT

T1 sequence (Q9Z2X8 324-612): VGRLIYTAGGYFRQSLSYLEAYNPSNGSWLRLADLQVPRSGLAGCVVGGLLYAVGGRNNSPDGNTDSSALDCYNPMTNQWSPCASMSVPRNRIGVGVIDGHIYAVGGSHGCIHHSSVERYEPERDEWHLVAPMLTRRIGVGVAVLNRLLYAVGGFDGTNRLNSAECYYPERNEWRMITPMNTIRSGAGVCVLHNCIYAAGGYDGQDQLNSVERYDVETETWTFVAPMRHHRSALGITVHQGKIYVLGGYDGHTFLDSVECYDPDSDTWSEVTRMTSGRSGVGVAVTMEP
Keap1 Kelch (Mus musculus), sequence (Q9Z2X8 309-624): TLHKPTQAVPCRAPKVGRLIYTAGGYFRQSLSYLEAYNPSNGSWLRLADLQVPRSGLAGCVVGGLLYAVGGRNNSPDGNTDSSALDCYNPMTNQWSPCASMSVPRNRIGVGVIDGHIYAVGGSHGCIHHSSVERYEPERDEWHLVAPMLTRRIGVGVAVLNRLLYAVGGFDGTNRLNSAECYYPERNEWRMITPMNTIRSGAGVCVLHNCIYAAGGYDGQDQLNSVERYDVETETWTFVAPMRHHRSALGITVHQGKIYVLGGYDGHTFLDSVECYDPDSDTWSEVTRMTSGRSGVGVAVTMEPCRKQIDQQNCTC
Keap1 Kelch (Homo sapiens), sequence (Q14145 321-609): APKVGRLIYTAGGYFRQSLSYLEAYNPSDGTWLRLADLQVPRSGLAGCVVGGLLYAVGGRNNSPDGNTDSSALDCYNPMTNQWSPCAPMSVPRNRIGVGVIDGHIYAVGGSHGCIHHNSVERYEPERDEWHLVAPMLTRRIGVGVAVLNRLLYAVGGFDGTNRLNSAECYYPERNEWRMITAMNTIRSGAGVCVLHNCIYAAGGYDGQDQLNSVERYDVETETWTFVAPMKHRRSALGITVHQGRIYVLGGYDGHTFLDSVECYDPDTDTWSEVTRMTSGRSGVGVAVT

Molecule: Nrf2 16-mer peptide 16-mer ETGE peptide (from UniProt Q16236)
Kd [1]: 20 nM

Molecule: AFFAQLQLDEETGEFL
Kd [2]: ~20 nM
competition with full-length Nrf2 for binding to Keap1 [3]: could compete with full-length Nrf2 for binding to Keap1 much better than a 10-mer peptide (LDEETGEFLP)

Molecule: LQLDEETGEFLPIQ
competition with full-length Nrf2 for binding to Keap1 [3]: could compete with full-length Nrf2 for binding to Keap1 much better than a 10-mer peptide (LDEETGEFLP)

Molecule: MSDAAVDTSSEITTKDLKEKKEVVEEAENGRDAPANGNAQNEENGEQEADNEVDEEEEEGGEEEEEEEEGDGEEEDGDEDEEAEAPTGKRVAEDDEDDDVDTKKQKTEEDD [Full-length ProTα, Prothymosin alpha, full-length mouse ProTα protein, simulated]
Nrf2-targeted cytoprotective genes [4]: upregulation of Nrf2-targeted cytoprotective genes
competition with Nrf2 for binding to Keap1 ([3]; ref [49], [50]): can compete with Nrf2 for binding to Keap1

Molecule: Nrf2 Neh2 (ETGE motif) Neh2 (from UniProt Q60795)
Kd [5]: 8 nM

Ka (binding constant) ([6]; ITC (VP-ITC), 25°C (T = 298 K), 50 mM phosphate pH 7, 100 mM NaCl, 1 mM DTT, 0.5 mM peptide titrated into 0.05 mM Kelch, single-site fit): 2.4 ± 0.1 10^6 M^−1
TΔS (entropy change upon binding) [6, 9]: -10.20 kcal/mol
ΔG (Gibbs free energy change upon binding) [6, 9]: -8.70 ± 0.02 kcal/mol
Molecule: AQNEENGEQEADNEVD [16-mer ProTα peptide, Mouse ProTα (Ala-39 to Asp-54) peptide (GenScript)]
relative binding to Keap1 ([6]; 16-mer ProTα vs Neh2 peptide with the same length, own ITC compared with ref [79]): interacts more weakly with Keap1 compared to the Neh2 peptide with the same length

Molecule: Nrf2 Neh2 (DLG motif) Neh2 (from UniProt Q60795)
Kd [7]: 500 nM

Ka [8]: 2.4e+06 ± 0.1 M⁻¹
dH [8]: -18.9 ± 0.1 kcal/mol
stoichiometry N [8]: 1.03
B1: 16-mer ProTα peptide (mouse), Ala-39 to Asp-54 (peptide)
peptide: AQNEENGEQEADNEVD
notes: Prothymosin alpha (ProTα), mouse, residues 39-54; also called Prothymosin alpha peptide; source: synthetic peptide; bought: GenScript
